Measurements taken from paper PMC7377239, “Cardiovascular Effects of Polychlorinated Biphenyls and Their Major Metabolites” (Environmental Health Perspectives, 2020).
Where a name gives a salt, the structure may show the parent alone. Read-outs that look alike come from different tables or passages of the source.

How the values were obtained:
[1] = system: iCell endothelial cells (human iPSC-derived ECs); assay: High-content imaging cytotoxicity in iCell endothelial cells, 24 h; type: cell-based; conditions: for viability at 0.01 µM / activity at 0.01 µM / viability at 0.1 µM / activity at 0.1 µM / viability at 1 µM / activity at 1 µM / viability at 10 µM / activity at 10 µM / viability at 100 µM / activity at 100 µM / minimal effective concentration: Homo sapiens, Endothelial cell, 24 hr; for viability at 0.1 µM / activity at 0.1 µM: 0.10 µM
In short: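 Human iPSC-derived endothelial cells (passages 1–5) were grown to a fibronectin-coated monolayer, then exposed 24 h at 37 °C with 0.5% DMSO vehicle. Staining was Hoechst 33342, MitoTracker Orange and calcein AM, read by high-content imaging. Point of departure came from 4-parameter logistic fits, with a 1-SD vehicle cutoff and 100 µM as the top concentration.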

[2] = system: HUVECs; assay: Tube formation (tubulogenesis) assay in HUVECs, 18 h; type: cell-based, human; conditions: Homo sapiens, HUVEC, 18 h; for activity at 0.1 µM: 0.10 µM
In short: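 HUVECs (passage 1–5) seeded on reduced-growth-factor basement membrane and exposed to compounds overnight at 37°C, 5% CO2, in 2× maintenance medium with 12.5 ng/mL VEGF; 0.5% DMSO vehicle. Calcein AM-stained tube networks imaged and analysed; vehicle-normalized readouts fit to four-parameter logistic, POD set at one SD of vehicle means.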

[3] = iPSC-EC, 0.00 µM control = 100.00, read-out: endo.cyto.24hr
[4] = iPSC-EC, 0.00 µM control = 100.00, read-out: endo.mito.24hr
[5] = iPSC-EC, 0.00 µM control = 100.00, read-out: endo.mitoint.24hr
[6] = iPSC-EC, 0.00 µM control = 100.00, read-out: endo.nma.24hr
[7] = iPSC-EC, 0.00 µM control = 100.00, read-out: endo.tc.24hrs
[8] = HUVECs, 0.00 µM = 100.00, read-out: huvec.mtl.18hr
[9] = HUVECs, 0.00 µM = 100.00, read-out: huvec.tlps.18hr
[10] = HUVECs, 0.00 µM = 100.00, read-out: huvec.tta.18hr
[11] = HUVECs, 0.00 µM = 100.00, read-out: huvec.ttl.18hr
[12] = endothelial cells (endo), cyto, read-out: POD endo.cyto.24hr
[13] = endothelial cells (endo), mito, read-out: POD endo.mito.24hr
[14] = endothelial cells (endo), mitoint, read-out: POD endo.mitoint.24hr
[15] = endothelial cells (endo), nma, read-out: POD endo.nma.24hr
[16] = endothelial cells (endo), tc, read-out: POD endo.tc.24hr
[17] = tube formation mtl, read-out: POD huvec.mtl.18hr
[18] = tube formation tlps, read-out: POD huvec.tlps.18hr
[19] = tube formation tta, read-out: POD huvec.tta.18hr
[20] = tube formation ttl, read-out: POD huvec.ttl.18hr

## Oc1cc(Cl)c(-c2cc(Cl)ccc2Cl)cc1Cl [4-OH PCB52]
[1]; [3]
  viability at 0.01 µM: 96.8%
  viability at 0.1 µM: 94.9%
  viability at 1 µM: 101%
  viability at 10 µM: 98%
  viability at 100 µM: 42.3%
[1]; [4]
  activity at 0.01 µM: 96.3%
  activity at 0.1 µM: 94.5%
  activity at 1 µM: 101%
  activity at 10 µM: 98%
  activity at 100 µM: 39.7%
[1]; [5]
  activity at 0.01 µM: 90.5%
  activity at 0.1 µM: 89.8%
  activity at 1 µM: 88.2%
  activity at 10 µM: 98.3%
  activity at 100 µM: 51.4%
[1]; [6]
  activity at 0.01 µM: 104%
  activity at 0.1 µM: 104%
  activity at 1 µM: 103%
  activity at 10 µM: 103%
  activity at 100 µM: 89.3%
[1]; [7]
  viability at 0.01 µM: 96.8%
  viability at 0.1 µM: 94.9%
  viability at 1 µM: 101%
  viability at 10 µM: 98%
  viability at 100 µM: 49.3%
[1]; iPSC-EC, top concentration 100.00 µM, read-out: endo.cyto.24hr POD
  minimal effective concentration: 13.2 µM
[1]; iPSC-EC, top concentration 100.00 µM, read-out: endo.mito.24hr POD
  minimal effective concentration: 13.2 µM
[1]; iPSC-EC, top concentration 100.00 µM, read-out: endo.mitoint.24hr POD
  minimal effective concentration: 43.8 µM
[1]; iPSC-EC, top concentration 100.00 µM, read-out: endo.nma.24hr POD
  minimal effective concentration: 63.5 µM
[1]; iPSC-EC, top concentration 100.00 µM, read-out: endo.tc.24hrs POD
  minimal effective concentration: 16.6 µM
[2]; [8]
  activity at 0.01 µM: 112%
  activity at 0.1 µM: 98.5%
  activity at 1 µM: 94%
  activity at 10 µM: 91.1%
  activity at 100 µM: 69.6%
[2]; [9]
  activity at 0.01 µM: 103%
  activity at 0.1 µM: 96.7%
  activity at 1 µM: 92.4%
  activity at 10 µM: 77.1%
  activity at 100 µM: 35.6%
[2]; [10]
  activity at 0.01 µM: 129%
  activity at 0.1 µM: 107%
  activity at 1 µM: 123%
  activity at 10 µM: 98.5%
  activity at 100 µM: 168%
[2]; [11]
  activity at 0.01 µM: 112%
  activity at 0.1 µM: 98.2%
  activity at 1 µM: 110%
  activity at 10 µM: 87.2%
  activity at 100 µM: 163%
[2]; HUVECs, top concentration 100.00 µM, read-out: huvec.mtl.18hr POD
  minimal effective concentration: 8.34 µM
[2]; HUVECs, top concentration 100.00 µM, read-out: huvec.tlps.18hr POD
  minimal effective concentration: 4.13 µM
[2]; HUVECs, top concentration 100.00 µM, read-out: huvec.tta.18hr POD
  minimal effective concentration: 51.8 µM
[2]; HUVECs, top concentration 100.00 µM, read-out: huvec.ttl.18hr POD
  minimal effective concentration: 62.1 µM

## O=S(=O)(O)Oc1cccc(-c2ccc(Cl)cc2)c1 [3'-PCB 3 sulfate]
[1]; [12]
  minimal effective concentration: 100 µM
[1]; [13]
  minimal effective concentration: 100 µM
[1]; [14]
  minimal effective concentration: 100 µM
[1]; [15]
  minimal effective concentration: 100 µM
[1]; [16]
  minimal effective concentration: 100 µM
[2]; [17]
  minimal effective concentration: 15.5 µM
[2]; [18]
  minimal effective concentration: 100 µM
[2]; [19]
  minimal effective concentration: 100 µM
[2]; [20]
  minimal effective concentration: 100 µM

## Clc1cccc(-c2cccc(Cl)c2)c1 [PCB 11, 3,3′-Dichlorobiphenyl]
[1]; [12]
  minimal effective concentration: 100 µM
[1]; [13]
  minimal effective concentration: 100 µM
[1]; [14]
  minimal effective concentration: 100 µM
[1]; [15]
  minimal effective concentration: 100 µM
[1]; [16]
  minimal effective concentration: 100 µM
[1]; iPSC-ECs, 0.01-100 μM
  effect on cell viability in iPSC-ECs: did not affect cell viability
[2]; [17]
  minimal effective concentration: 100 µM
[2]; [18]
  minimal effective concentration: 41.8 µM
[2]; [19]
  minimal effective concentration: 100 µM
[2]; [20]
  minimal effective concentration: 100 µM

## Clc1ccc(Cl)c(-c2c(Cl)ccc(Cl)c2Cl)c1 [PCB 95, 2,2′,3,5′,6-pentachlorobiphenyl]
[1]; [12]
  minimal effective concentration: 100 µM
[1]; [13]
  minimal effective concentration: 100 µM
[1]; [14]
  minimal effective concentration: 100 µM
[1]; [15]
  minimal effective concentration: 100 µM
[1]; [16]
  minimal effective concentration: 100 µM
[2]; [17]
  minimal effective concentration: 8.29 µM
[2]; [18]
  minimal effective concentration: 100 µM
[2]; [19]
  minimal effective concentration: 100 µM
[2]; [20]
  minimal effective concentration: 100 µM
